The METLIN SMRT retention time set (Domingo-Almenara et al. 2019)

Assay: gradient 5% acetonitrile 3 min, to 50% in 2 min, to 85% in 15 min, held 3 min, 100 µL/min
Conditions: column: Zorbax Extend-C18 2.1 x 50 mm; eluents: water / acetonitrile, 0.1% formic acid
How it was run: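 Pure standards were analyzed in mixtures of ~100 molecules using HPLC coupled to a quadrupole time-of-flight mass spectrometer, in both positive and negative ionization mode. Separation used a Zorbax Extend-C18 column (2.1 × 50 mm, 1.8 μm) at 100 μL/min, with water and acetonitrile each containing 0.1% formic acid. Dead and dwell volumes were 40 μL and 900 μL, and data were collected over 3 months. Retention time was read from computationally picked adduct peaks, each inspected manually.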

Structure (SMILES) | RP-LC retention time
CCc1ccc(OCC(=O)N(Cc2ccc(OC)cc2)C2CCS(=O)(=O)C2)cc1 (stereo not drawn) | 989 s
O=C(O)c1cc2nc(-c3ccc(F)cc3)cc(C(F)(F)F)n2n1 | 880 s
CCc1nnc2nc(N3CCN(C(=O)c4ccc5c(c4)OCO5)CC3)cc(C)n12 | 611 s
COc1ccc(-n2nc3c(N4CCCC(C(=O)NCc5ccccn5)C4)nnc(C)c3c2C)cc1 (stereo not drawn) | 591 s
Cc1ccc(S(=O)(=O)N2CCC3(CC2)NCCN=C3NCc2ccccc2F)cc1 | 709 s
Nc1nc(N2CCN(C3CCCCC3)CC2)ncc1C(=O)NCc1ccccc1F | 629 s
COc1ccccc1Oc1ccc(S(=O)(=O)N2CCCC2)cc1 | 914 s
Cc1ccc(NC(=O)Nc2nccn(-c3ccc(C)c(C)c3)c2=O)cc1C | 1150 s
COc1ccc(-c2[nH]ncc2CN2CC(F)(F)C[C@H]2CN2CCOCC2)cc1OC | 594 s
CCn1nc(N2CCCC(NC(=O)Cn3c(=O)oc4ccccc43)C2)ccc1=O (stereo not drawn) | 707 s
CC(C)(C)CC(=O)N1CCN(c2nc(CN3CCOCC3)cs2)CC1 | 611 s
COc1ccc(C)cc1NC(=O)N1CCCC1c1c(C)noc1C (stereo not drawn) | 840 s
Cc1ccc(CNC(=O)C2CCCN(c3nc4ccsc4c(=O)n3-c3ccc(C)cc3)C2)cc1 (stereo not drawn) | 977 s
Cc1cc2c(cc1S(=O)(=O)N1CCCC1C(=O)NC1CCCCCC1)OC(C)C(=O)N2 (stereo not drawn) | 834 s
COc1ccc(NC(=O)c2[nH]c3cc(C)sc3c2CN2CCOCC2)cc1OC | 635 s
Cc1csc(-c2cc(S(=O)(=O)N3CCCCCC3)c(C)n2C)n1 | 1100 s
O=C(Cn1ccn2nc(-c3ccccc3)c(CO)c2c1=O)N1CCCc2ccccc21 | 861 s
COc1cccc(NC(=O)CC(=O)Nc2ccc3nc4n(c(=O)c3c2)CCCCC4)c1 | 1210 s
O=C(c1ccccc1Cl)N1CCN=C1N1CCCCC1 | 638 s
Cc1cccc(NC(=O)N(C)CCc2noc(COc3cccc(C)c3)n2)c1 | 970 s
CCOc1cccc2cc(C(=O)Nc3nc(-c4ccccc4)cs3)c(=N)oc12 | 987 s
CC(=O)Nc1cccc(-c2nc(-c3ccc4c(c3)oc(=O)n4C)no2)c1C | 750 s

Structure (SMILES) | RP-LC retention time
Cc1ccc(N2C(=O)CN(S(=O)(=O)c3ccccc3)CC2(C)C(=O)NC2CCCCC2)cc1 (stereo not drawn) | 1000 s
Cc1nc2ccccc2nc1NS(=O)(=O)c1ccc(N)cc1 | 764 s
Cc1ccc(NC(=O)Cn2c(=O)n(-c3ccccc3)c(=O)c3c2cc(C)n3C)cc1Cl | 927 s
Cc1noc(C)c1S(=O)(=O)N1CC(N(Cc2cccnc2)CC(C)C)C1 | 706 s
COc1cc(-c2nc(Nc3ccc(C)cc3)c3ccccc3n2)cc(OC)c1OC | 796 s
CCC(C)NC(=O)N1CC=C(c2cn(C(C)C)c3ncccc23)CC1 (stereo not drawn) | 821 s
CC(C)N1CCN(Cc2ccc(C(=O)NC3CCCCCC3)cc2)C(=O)C1=O | 749 s
Cc1nn(CC(=O)NC2CCCCCC2)c(=O)c2nc(-c3ccccc3)sc12 | 930 s
Cc1cc(F)ccc1NC(=O)Cn1cc2c(n1)CCC(C)C2 (stereo not drawn) | 948 s
CC(C)NC(=O)N1CCCC(OCc2nc(-c3ccccc3)no2)C1 (stereo not drawn) | 551 s
CN(CCc1noc(COc2ccc(Cl)cc2)n1)C(=O)NCc1ccccc1 | 944 s
CCn1ccc2cc(S(=O)(=O)N3CCCC(C(=O)NCc4ccc(OC(C)C)cc4)C3)ccc21 (stereo not drawn) | 1060 s
O=C(CN1CCN(Cc2ccccc2F)C1=O)N1CCN(C2CCCCC2)CC1 | 613 s
Cc1ccc(NC(=O)Cn2nc(C(=O)N3CCCC3)c3ccccc32)cc1Cl | 950 s
CNC(=O)N1CCCN(C2=NS(=O)(=O)C(c3ccccc3)=C2C)CC1 | 594 s
CCN(CC)CCOc1ccc(C(=C(Cl)c2ccccc2)c2ccccc2)cc1 | 1010 s
O=C(O)CSc1nnc(COc2cccc3cccnc23)n1-c1ccccc1 | 577 s
O=S(=O)(c1ccc(-c2ccno2)s1)N1CCN(c2ccccn2)CC1 | 680 s
O=C(c1ccc(S(=O)(=O)NCc2cccnc2)o1)N1CCN(c2ccccc2F)CC1 | 624 s
CC(c1ccccc1)c1nc(-c2ccc3c(c2)nnn3CCN2CCOCC2)no1 (stereo not drawn) | 714 s
Cc1nc(-c2ccccc2)cc2nn(CC(=O)Nc3ccccc3Br)c(=O)n12 | 995 s
c1cc(-c2noc(COC3CCCN(Cc4ccoc4)C3)n2)ccn1 (stereo not drawn) | 570 s

Structure (SMILES) | RP-LC retention time
COc1ccc(Cl)cc1NS(=O)(=O)c1cc(-c2nc(C(C)(C)C)cs2)cs1 | 1350 s
O=C(CN1CCN(C(=O)Nc2ccc(Cl)cc2)CC1=O)N1CCN(c2ccccn2)CC1 | 592 s
Cc1ccc(CNC(=O)C2(C)CN(S(C)(=O)=O)CC(=O)N2CCCc2ccccc2)cc1 (stereo not drawn) | 927 s
COc1cc(=O)c(C(=O)N2CCC(C(N)=O)CC2)nn1-c1ccc(C)cc1 | 604 s
COc1cccc(S(=O)(=O)N2CCC(OCCOCc3ccccc3)CC2)c1 | 678 s
CCCn1nnc(NCc2ccc(-c3cc(Cl)ccc3Cl)o2)n1 | 1180 s
Cc1oc(-c2ccc(NC(=O)c3ccc(Br)cc3)cc2)nc1Cn1cccn1 | 948 s
Cc1ccc(/C=C/S(=O)(=O)N2CC(c3nc(-c4cccs4)no3)C2)cc1 | 996 s
CC1=C(c2ccc(Cl)cc2)S(=O)(=O)N=C1N1CCC(C(=O)NCCc2ccco2)CC1 | 870 s
Cc1ccc(F)c(NC(=O)C(C)C2CCN(C(=O)Nc3ccc(Cl)cc3)CC2)c1 (stereo not drawn) | 968 s
CCOC(=O)c1cccc(NC(=O)Cn2cnc3nc(N4CCCC(C(=O)NC)C4)sc3c2=O)c1 (stereo not drawn) | 678 s
C[C@H]1CN(C(=O)Nc2ccc(F)cc2F)C[C@@H]1c1nc(-c2cccnc2)no1 | 770 s
Cc1ccc(-n2ccc(=O)c(-c3nc(-c4ccc(F)c(Cl)c4)no3)n2)cc1 | 1030 s
COc1ccc(S(=O)(=O)N2CCc3c(c(-c4nnc(-c5ccc(F)cc5)o4)nn3C)C2)cc1 | 945 s
Cc1cnc(C(=O)N2CC[C@H](n3c(=O)n(C)c4cccnc43)C2)cn1 | 647 s
CCn1cc(C(=O)NCCC(C)C)c2nn(-c3ccccc3)c(=O)c-2c1 | 878 s
CCCNC(=O)CCc1nc2ccccc2n(CC(=O)Nc2ccc(C(=O)OCC)cc2)c1=O | 792 s
COc1cccc(CNC(=O)C2(C)CCN(C(=O)Nc3ccc(C)c(Cl)c3)CC2)c1 | 930 s
O=C(Cn1cnc2c(sc3nc(-c4ccccc4)ccc32)c1=O)Nc1ccccc1 | 986 s
Cc1ccccc1S(=O)(=O)N1CCC(Cc2nncn2-c2ccccc2)CC1 | 827 s
O=C(COc1ccccc1F)N1CC(c2nc3ccccc3[nH]2)C1 | 578 s
Cc1cccc(NC(=O)Cn2nc(C(=O)N3CCCC3)c3ccccc32)c1 | 842 s

Structure (SMILES) | RP-LC retention time
O=C(C1CC1)N1CCCCC1c1nc(-c2cnccn2)no1 (stereo not drawn) | 638 s
CCNc1ccccc1C(=O)O | 782 s
CC(C)Cn1c(=O)c(C(=O)NCc2cccc(C(F)(F)F)c2)nc2cccnc21 | 1030 s
CCOC(=O)c1cc(S(=O)(=O)N2CCCC2C(=O)Nc2ccc3c(c2)OCCO3)cn1C (stereo not drawn) | 869 s
CN1CCCc2cc(C(CNC(=O)C(=O)NC3CCCCC3)N(C)C)ccc21 (stereo not drawn) | 598 s
c1ccc(-c2nc3nc4c(c(Nc5ccc6c(c5)OCCO6)n3n2)CCCC4)cc1 | 970 s
O=C(Cc1ccc(NC(=O)C2CCCC2)cc1)NCC(F)(F)F | 727 s
O=C(Nc1ccc(-c2cn3cccnc3n2)cc1)c1cccc(Cl)c1 | 664 s
COCCCNC(=O)C1CCN(C(=O)c2ncn3c2COC(c2ccc(F)cc2)C3)CC1 (stereo not drawn) | 626 s
CCOc1ccccc1NC(=O)N1CCC2(CC1)NC(=O)c1ccc(F)cc1N2C | 817 s
O=C(CCc1csc(NC(=O)c2ccc[nH]c2=O)n1)NCC1CCCO1 (stereo not drawn) | 573 s
CC1CCN(C(=O)C2=CN(c3cccc(F)c3)c3ccccc3S2(=O)=O)CC1 | 908 s
Cc1ccc(NC(=O)N2CCCC2c2nc(-c3ccc(F)cc3F)no2)cc1C (stereo not drawn) | 1050 s
COc1ccc(CCS(=O)(=O)N(Cc2ccsc2)C2CC2)cc1 | 1000 s
CCOc1ccc(NC(=O)CNC(=O)C2CCCCC2)cc1 | 733 s
COc1ccc(NC(=O)CSc2nnc3c4cc(-c5ccccc5)nn4ccn23)c(OC)c1 | 858 s
Cn1cc(C=O)c2nccnc21 | 631 s
CC(C)c1ccc(OCC(=O)Nc2nnc(C3CC(=O)N(c4ccc(F)cc4)C3)o2)cc1 (stereo not drawn) | 904 s
O=C(NCc1cc(F)ccc1F)c1ccc2ncnc(N3CCCCC3)c2c1 | 671 s
CCc1nnc(-c2ccc3ccn(CC(=O)NCc4ccc(F)cc4)c3c2)o1 | 801 s
Cc1cc(S(=O)(=O)NCCc2cn(C)c3ncccc23)ccc1F | 745 s
COCCN1C(=O)c2cc(-c3ccc(OC)c(OC)c3)nn2CC1(C)C(=O)NC1CCCCC1 (stereo not drawn) | 824 s
